Laboratory results: patent US6861435B2, “Urokinase inhibitors” (Pentapharm AG, priority 2001, dated 2005)
Counter-ions that a name gives are not always drawn.

Target: T1, sc-urokinase (Homo sapiens, UniProt P00749)
T1 construct: purchased Ribosepharm GmbH, Haan, Germany
Assay: Determination of the urokinase-inhibiting activity (chromogenic substrate, Dixon)
Format: biochemical
Conditions: Pefachrome UK or Bz-βAla-Gly-Arg-pNA, 25° C., pH 8.0, mean from at least 3 determinations
Protocol: Determination of the Urokinase-inhibiting Activity
To determine the inhibitory activity, 200 μl of Tris buffer (0.05 mol/l, containing the inhibitor, 0.154 mol/l of NaCl, 5% ethanol, pH 8.0), 25 μl of substrate (Pefachrome UK or Bz-βAla-Gly-Arg-pNA in H2O; Pentapharm Ltd., Basel, Switzerland) and 50 μl of sc-urokinase (Ribosepharm GmbH, Haan, Germany) were incubated at 25° C. After 3 min the reaction was stopped by the addition of 25 μl of acetic acid (50%) and the absorption was determined at 405 nm by means of a microplate reader (MR 50001 Dynatech, Denkendorf, Germany). The Ki values were determined according to Dixon by linear regression using a computer program. The Ki values represent the mean from at least 3 determinations.
The Ki values mentioned in Table 2 can be determined according to the above mentioned method.

| SMILES | Ki |
| --- | --- |
| CCOC(=O)N1CCN(C(=O)N(Cc2cccc(C(=N)N)c2)NS(=O)(=O)c2c(C(C)C)cc(C(C)C)cc2C(C)C)CC1 [Example 5, 1-Ethoxycarbonyl-4-[1-(3-(amino-imino-methyl)-benzyl)-2-(2,4,6-triisopropyl-benzenesulfonyl)-1-hydrazino-carbonyl]-piperazine hydrochloride] | 0.67 ± 0.18 µM |
| CCOC(=O)N1CCN(C(=O)N(Cc2cccc(C(N)=NN)c2)NS(=O)(=O)c2c(C(C)C)cc(C(C)C)cc2C(C)C)CC1 [Example 18] | 25.6 ± 9.5 µM |
